Reference: US5242924A, “Tetrazolyl-(phenoxy and phenoxyalkyl)-piperidinylpyridazines as antiviral agents” (Sterling Winthrop Inc., priority 1992, dated 1993)
≈ marks a conversion by molar mass, not a printed value.

System: human rhinovirus (HRV) serotypes HRV-2, -1A, 1B, -6, -14, -21, -22, -15, -25, -30, -50, -67, -89, -86 and -41
Test: standard plaque reduction assay, panel of human rhinovirus serotypes in HeLa (Ohio) cells
Assay type: cell-based
Settings: MIC = 50% plaque reduction, N serotypes: 15 (Ex. 1, 2, 4, 7, 8), 13 (Ex. 3), 2 (Ex. 5, 6); for MIC50 (Rhinovirus): concentration required to inhibit 50% of the tested serotypes; for MIC80 (Rhinovirus): concentration required to inhibit 80% of the tested serotypes
Method: The MIC values were determined by a standard plaque reduction assay as follows: HeLa (Ohio) cells in monolayers were infected at a concentration of virus to give approximately 80 plaques per monolayer in the virus control (no drug present). The compound to be tested was serially diluted and included in the agar-medium overlay and in some cases, during the adsorption period as well. The MIC was determined to be that concentration of compound which reduced the number of plaques by 50% with respect to the untreated virus control.
In the standard test procedure, the compounds were tested against a panel of fifteen human rhinovirus (HRV) serotypes, namely HRV-2, -1A, 1B, -6, -14, -21, -22, -15, -25, -30, -50, -67, -89, -86 and -41. The MIC value for each rhinovirus serotype was determined, and the efficacy of each compound was determined in terms of MIC50 and MIC80 values, which is the concentration of the compound required to inhibit 50% and 80%, respectively, of the tested serotypes.
The following Table gives the testing results with the compounds of the invention. The number of serotypes (N) is indicated after the MIC80 figure.

| Compound | MIC50 (Rhinovirus) [µg/mL] | MIC80 (Rhinovirus) [µg/mL] |
| --- | --- | --- |
| CCc1ccc(N2CCC(COc3ccc(-c4nnn(C)n4)cc3)CC2)nn1 [Ex. 1] | 13.2 (≈ 34.7 µM) | 0.281 (≈ 0.742 µM) |
| Cc1ccc(N2CCC(COc3ccc(-c4nnn(C)n4)cc3)CC2)nn1 [Ex. 2] | 13.3 (≈ 36.5 µM) | 0.141 (≈ 0.386 µM) |
| CCCc1ccc(N2CCC(Oc3ccc(-c4nnn(C)n4)cc3)CC2)nn1 [Ex. 3] | 15.7 (≈ 41.4 µM) | 1.82 (≈ 4.8 µM) |
| Cc1ccc(N2CCC(COc3c(C)cc(-c4nnn(C)n4)cc3C)CC2)nn1 [Ex. 4] | 20.1 (≈ 51.2 µM) | 1.48 (≈ 3.77 µM) |
| Cc1ccc(N2CCC(Oc3c(C)cc(-c4nnn(C)n4)cc3C)CC2)nn1 [Ex. 5] | 0.92 (≈ 2.42 µM) | 1.8 (≈ 4.74 µM) |
| Cc1ccc(N2CCC(Oc3ccc(-c4nnn(C)n4)cc3)CC2)nn1 [Ex. 6] | 0.27 (≈ 0.768 µM) | 0.52 (≈ 1.48 µM) |
| Cc1ccc(N2CCC(CCOc3ccc(-c4nnn(C)n4)cc3)CC2)nn1 [Ex. 7] | 6.64 (≈ 17.5 µM) | 0.04 (≈ 0.105 µM) |
| Cc1ccc(N2CCC(CCOc3c(C)cc(-c4nnn(C)n4)cc3C)CC2)nn1 [Ex. 8] | 16.8 (≈ 41.3 µM) | 0.66 (≈ 1.62 µM) |
